Source: patent EP1501797B1, “3-(SUBSTITUTED AMINO)-1H-INDOLE-2-CARBOXYLIC ACID ESTER AND 3-(SUBSTITUTED AMINO)-BENZO[B]THIOPHENE-2-CARBOXYLIC ACID ESTER DERIVATIVES AS INTERLEUKIN-4 GENE EXPRESSION INHIBITORS” (Aventis Pharmaceuticals Inc., priority 2002, dated 2003)
Values joined by “and” are separate entries in the source; they are usually repeats but may differ in a detail not shown here. Equal entries are not always repeated.

How the values were obtained:
human IFN-γ promoter = assay: IFN-γ Luc assay in Jurkat cells; type: cell-based; conditions: Jurkat cell line; concentration not given; 480 min
in vitro = conditions: mouse, swiss 3t3 fibroblasts
Protocol: (§1) A third assay utilized in the present invention involves an in vitro cytotoxicity assay. This assay is used to further characterize the compounds in order to assess toxic activities of compounds on contact inhibited, non-dividing 3T3 fibroblasts. Other toxicity assays may be used.
(§2) Contact inhibited Swiss 3T3 fibroblasts are purchased from ATCC. The cells are maintained in 1640 RPMI supplemented with 10% fetal bovine serum (Gibco).
(§3) On day of assay, cells are detached from flasks by trypsinization, washed in medium and counted. 100 microliters of 2.5 x 10^4 cells per well are plated into Falcon brand 96 well tissue culture plates and cells incubated at 37°C in presence of 5% CO2 for 2 days or until confluent.
(§4) […] All compound dilutions are assayed in triplicate. […] Cells are returned to the incubator for 2 days.
(§5) After 2 day incubation, the 3T3 cells are assayed for viability using an MTS Assay Kit (Promega). Media is added to blank wells for background calculations. After 2 hours incubation in kit reagent, the optical density at 490 nm for each compound and control is determined by plate reader.
(§6) Results are expressed as percent cytotoxicity, i.e., (mean OD of compound wells - background OD)/ (mean OD of controls - background).
(§7) Note that starting concentration of CsA was 1 µM. […]

Swiss 3T3 fibroblasts = assay: in vitro
Protocol: as §1, §2, §3, §4, §5, §6, §7

eosinophil = assay: OVA-induced lung inflammation in Brown Norway rats, eosinophil influx into bronchoalveolar fluid; type: in vivo; conditions: Rattus norvegicus, ip, intraperitoneal injection, FIG. 2, read-out: ED50, inhibition of the influx of eosinophil
Protocol: Rat model was very similar to the mouse models described earlier. Briefly, the lung inflammatory model described by Haczku et al. was used with minor modifications (Haczku A., et al., Immunology, (1996), 88, 247-251). Male Brown Norway rats, weighing 160-200 grams were sensitized with intraperitoneal injection of 1ml of a suspension containing ovalbumin (1 mg) and Al(OH)3 (100 mg) on days 1, 2 and 3. Three weeks later, the rats were treated with vehicle or drugs via intraperitoneal injections. One hour later, the rats were challenged with ovalbumin inhalation (1% solution, 10 mg/ml in sterilized saline) for 20 minutes in a 10 liter Plexiglas chamber which was connected to a DeVilbiss (Ultra-NEB®99) nebulizer with a carrier air flow of 1 liter/minute.
Results of dose response studies of 3-(4-pyridinylamino)-1H-indole-2-carboxylic acid on eosinophil influx into the bronchoalveolar fluid of ovalbumin sensitized and challenged Brown Norway rats are depicted as bar graphs in FIG. 2. Single dose of cyclosporin A (CsA) and dexamethasone (Dex) were also included as reference standards.

IgG1 Anti-DNP Antibody = assay: In vivo model of humoral immunity in mice (DNP-KLH), IgG1 anti-DNP antibody
Protocol: Female Balb/c mice, each weighing approximately 20 to 25 grams each, aged 5 to 8 weeks are used. Each experiment uses 30 mice.
The antigen for immunization is 2,4-dinitrophenyl (DNP) or 2,4,6-trinitrophenyl (TNP) conjugated to keyhole limpet haemocyanin (KLH). The antigen (100 µg/mouse) is adsorbed to an adjuvant (colloidal aluminum hydroxide) and given i.p. to animal in a total volume of 0.2-0.3 ml.
Animals are randomly divided into 5 groups of 6 mice each. Group 1 is a positive control group, Groups 2, 3, and 4 are test compound groups, and Group 5 is a vehicle control group. Compounds may be given by i.n., i.p., p.o., s.c., i.m. or i.v. administration. […] On day 8 after the immunization, mice are bled by cardiac puncture under anesthesia (isoflurane), and the serum samples are stored at -20°C until required for antibody analysis. The anesthetized animals are euthanized with overdosage of sodium pentobarbital at the end of experiment. Statistical analysis of the data are performed using ANOVA.
Mice are immunized with a hapten carrier conjugate, DNP-KLH, and anti-DNP antibody levels are determined in a isotype specific manner as described above. […]

## O=C(O)c1[nH]c2ccccc2c1Nc1ccncc1 [Example 28, 3-(4-Pyridinylamino)-1H-indole-2-carboxylic acid]
Human IFN-γ promoter
  2.7-IFN-γ -Luc (% of control): 100 ± 15 % of control
In vitro
  viability at 48 h, 0.001 µM: 124%
  viability at 48 h, 0.01 µM: 112%
  viability at 48 h, 0.03 µM: 111%
  viability at 48 h, 0.1 µM: 111%
  viability at 48 h, 3 µM: 110%
  viability at 48 h, 10 µM: 99.1%
Swiss 3T3 fibroblasts
  toxic effects on the viability of quiescent 3T3 cells (in words): no toxic effects
eosinophil
  ED50: 10.1 mg/kg
IgG1 Anti-DNP Antibody; individual animals 1-6, dose not stated
  IgG1 Anti-DNP Antibody Titer: 72.42 and 185.22 and 19.83 and 40.19 and 83.11 and 37.83
IgG1 Anti-DNP Antibody; vehicle 167.69 +/-18.19, dose not stated
  IgG1 Anti-DNP Antibody Titer Mean+/-SE: 73.10 +/-24.38
IgG1 Anti-DNP Antibody; versus vehicle
  IgG1 Anti-DNP Antibody Titer Inhibition: 56.5%
